Our source for the IC50 values is patent publication US7560466B2, “Methods of treating or preventing autoimmune diseases with 2,4-pyrimidinediamine compounds” (Rigel Pharmaceuticals, Inc., priority 2003, dated 2009).

The target of one assay is T1, Syk kinase (Homo sapiens, UniProt P43405).
T1 construct: purchased Upstate, Lake Placid N.Y
The assay can be described thus: Syk kinase biochemical fluorescence polarization assay. The following applies: isolated Syk kinase, 11pt, read-out: fp_syk, 11pt. The procedure:
Many of the 2,4-pyrimidinediamine compounds were tested for the ability to inhibit Syk kinase catalyzed phosphorylation of a peptide substrate in a biochemical fluorescenced polarization assay with isolated Syk kinase. In this experiment, Compounds were diluted to 1% DMSO in kinase buffer (20 mM HEPES, pH 7.4, 5 mM MgCl2, 2 mM MnCl2, 1 mM DTT, 0.1 mg/mL acetylated Bovine Gamma Globulin). Compound in 1% DMSO (0.2% DMSO final) was mixed with ATP/substrate solution at room temperature. Syk kinase (Upstate, Lake Placid N.Y.) was added to a final reaction volume of 20 uL, and the reaction was incubated for 30 minutes at room temperature. […] EDTA (10 mM final)/anti-phosphotyrosine antibody (1× final)/fluorescent phosphopeptide tracer (0.5× final) was added in FP Dilution Buffer to stop the reaction for a total volume of 40 uL according to manufacturer's instructions (PanVera Corporation) The plate was incubated for 30 minutes in the dark at room temperature. Plates were read on a Polarion fluorescence polarization plate reader (Tecan). Data were converted to amount of phosphopeptide present using a calibration curve generated by competition with the phosphopeptide competitor provided in the Tyrosine Kinase Assay Kit, Green (PanVera Corporation).
In Tabe 1, all reported values are IC50s (in μM).

The test system of assay [1] is cultured human mast cells (CHMC), ionomycin-induced degranulation. The assay can be described thus: CHMC low cell density ionomycin activation: tryptase assay. Type of assay: cell-based. Conditions: 3pt, read-out: LD Tryptase, CHMC, Iono, 3pt.
Assay [2] concerns cultured human mast cells (CHMC), IgE-induced degranulation. The assay can be described thus: CHMC low cell density IgE activation: tryptase assay. Type of assay: cell-based. The procedure, abridged: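 Tryptase release read fluorogenically (30 min, room temperature) from supernatants of anti-IgE-challenged cultured human mucosal mast cells derived from umbilical cord CD34+ cells, at low density of 1000–1500 cells/well.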

[3] abbreviates: low cell density CHMC, ionomycin activation (2 μM final).
Setting [4] is: low cell density CHMC, 3pt, read-out: LD Tryptase, CHMC, IgE, 3pt.
Setting [5] is: low cell density CHMC, 8pt, read-out: LD Tryptase, CHMC, IgE, 8pt.
The mark [6] stands for this setting: Homo sapiens, Mast cell, low cell density CHMC, ionomycin activation (2 μM final).
Setting [7] is: Homo sapiens, Mast cell, low cell density CHMC, 8pt, read-out: LD Tryptase, CHMC, IgE, 8pt.
[8] abbreviates: CHMC low cell density, ionomycin activation.
Setting [9] is: CHMC low cell density, 3pt, read-out: LD Tryptase, CHMC, IgE, 3pt.

Where two headings read alike, the source gives them in different places. Bounds are passed on as bounds.

Regarding `COc1cc(Nc2ncc(F)c(Nc3ccc4c(c3)NC(C)(C)CO4)n2)cc(OC)c1` [Compound 203, N4-(3,4-Dihydro-3,3-dimethyl-2H,4H-benz[1,4]oxazin-6-yl)-N2-(3,5-dimethoxyphenyl)-5-fluoro-2,4-pyrimidinediamine], at Syk kinase, the IC50 is < 10 µM.
The same measure, in the same setting: as for `O=C1Nc2cc(Nc3nc(Nc4ccc(-c5cnco5)cc4)ncc3F)ccc2OC1CCO` (stereo not shown) [Compound 227], the figure is < 10 µM; as for `COc1cc(Nc2ncc(F)c(Nc3ccc4c(c3)NC(=O)C(C)S4(=O)=O)n2)cc(OC)c1` (stereo not shown) [Compound 263, N2-(3,5-Dimethoxyphenyl)-N4-(dioxide-2-methyl-1,1,3-trioxo-4H-benzo[1,4]thiazin-6-yl)-5-fluoro-2,4-pyrimidinediamine], < 10 µM.
The same measure, in the same setting: as for `Cc1cc(C)cc(Nc2ncc(F)c(Nc3ccc4c(c3)NC(=O)C(C)S4(=O)=O)n2)c1` (stereo not shown) [Compound 264], the figure is < 10 µM; as for `CC1C(=O)Nc2cc(Nc3nc(Nc4ccc5cn[nH]c5c4)ncc3F)ccc2S1(=O)=O` (stereo not shown) [Compound 265], < 10 µM; as for `COc1cc(Nc2ncc(F)c(Nc3ccc4c(c3)NC(=O)C(C)S4(=O)=O)n2)cc(OC)c1OC` (stereo not shown) [Compound 266], < 10 µM.
Same read-out and setting: in the case of `COc1cc(Nc2ncc(F)c(Nc3ccc4c(c3)NC(=O)C(C)(C)S4(=O)=O)n2)cc(OC)c1` [Compound 267] it was < 10 µM; in that of `Cc1cc(C)cc(Nc2ncc(F)c(Nc3ccc4c(c3)NC(=O)C(C)(C)S4(=O)=O)n2)c1` [Compound 268], < 10 µM; in that of `COc1cc(Nc2ncc(F)c(Nc3ccc4c(c3)NC(=O)C(C)(C)S4(=O)=O)n2)cc(OC)c1OC` [Compound 269], < 10 µM.
Take `CC1(C)Sc2ccc(Nc3nc(Nc4ccc5cn[nH]c5c4)ncc3F)cc2NC1=O` [Compound 295]: the IC50 at Syk kinase is < 10 µM.
With `CC1(C)Oc2ccc(Nc3nc(Nc4cc(CO)cc(CO)c4)ncc3F)cc2NC1=O` [Compound 344, N2-[3,5-Bis(hydoxymethylene)phenyl]-N4-(2,2-dimethyl-3-oxo-4H-benz[1,4]oxazin-6-yl)-5-fluoro-2,4-pyrimidinediamine], the IC50 at Syk kinase was < 10 µM.
Same read-out and setting: as for `CN(c1ccc2c(c1)OCCO2)c1nc(Cl)ncc1F` [Compound 390], the figure is > 10 µM; as for `COc1cc(Nc2ncc(F)c(Nc3ccc4c(c3)NC(=O)C(C)(C)O4)n2)cc(OC)c1OC` [Compound 543], < 10 µM.
Turning to `CCn1ncc2cc(Nc3ncc(F)c(Nc4ccc5c(c4)NC(=O)C(C)(C)O5)n3)ccc21` [Compound 696], at Syk kinase, the IC50 is < 10 µM.
On the same count and under the same terms, in the case of `CCCn1ncc2cc(Nc3ncc(F)c(Nc4ccc5c(c4)NC(=O)C(C)(C)O5)n3)ccc21` [Compound 704] it was < 10 µM; in that of `CCCn1ncc2ccc(Nc3ncc(F)c(Nc4ccc5c(c4)NC(=O)C(C)(C)O5)n3)cc21` [Compound 708], < 10 µM; in that of `CCCCn1ncc2cc(Nc3ncc(F)c(Nc4ccc5c(c4)NC(=O)C(C)(C)O5)n3)ccc21` [Compound 712], < 10 µM.
Consider `CCCCn1ncc2ccc(Nc3ncc(F)c(Nc4ccc5c(c4)NC(=O)C(C)(C)O5)n3)cc21` [Compound 716], for which, on Syk kinase, the IC50 is < 10 µM.
Same read-out and setting: in the case of `CC1(C)Oc2ccc(Nc3nc(Nc4ccc5c(cnn5CC5CC5)c4)ncc3F)cc2NC1=O` [Compound 736] it was < 10 µM; in that of `CC1(C)Oc2ccc(Nc3nc(Nc4ccc5cnn(CC6CC6)c5c4)ncc3F)cc2NC1=O` [Compound 740], < 10 µM; in that of `CC1(C)Oc2ccc(Nc3nc(Nc4ccc5c(cnn5C5CCCCC5)c4)ncc3F)cc2NC1=O` [Compound 744], < 10 µM.
Same read-out and setting: as for `Cc1nn(C)c2cc(Nc3ncc(F)c(Nc4ccc5c(c4)NC(=O)C(C)(C)O5)n3)ccc12` [Compound 754], the figure is < 10 µM.
With `Fc1cnc(Nc2cccc(-c3ncco3)c2)nc1Nc1ccc2c(n1)NCCO2` [Compound 1143, N4-(3,4-Dihydro-2H,4H-5-pyrid[1,4]oxazin-6-yl)-5-fluoro-N2-[3-(oxazol-2-yl)phenyl]-2,4-pyrimidinediamine], the IC50 in assay [1] (setting [3]) was > 10 µM; in assay [2] (setting [4]), < 10 µM; in assay [2] (setting [5]), < 10 µM.
`COc1ccc(Nc2ncc(F)c(Nc3ccc4c(n3)NCCO4)n2)cc1Cl` [Compound 1146, N2-(3-Chloro-4-methoxyphenyl)-N4-(3,4-dihydro-2H,4H-5-pyrid[1,4]oxazin-6-yl)-5-fluoro-2,4-pyrimidinediamine]: the IC50 in assay [1] (setting [3]) was > 10 µM; in assay [2] (setting [4]) it was < 10 µM.
`COC(=O)C=NC(=O)c1ccc(Nc2ncc(F)c(Nc3ccc4c(c3)NC(=O)[C@H](C)O4)n2)cc1` [Compound 1271, (S)-5-Fluoro-N2-[4-(N-methoxycarbonylmethyleneamino)carbonylphenyl]-N4-(2-methyl-3-oxo-2H,4H-benz[1,4]oxazin-6-yl)-2,4-pyrimidinediamine]: the IC50 is > 10 µM in assay [1] (setting [6]) and < 10 µM in assay [2] (setting [7]).
On the same counts, the results for `COC(=O)C=NC(=O)c1ccc(Nc2ncc(F)c(Nc3ccc4c(c3)NC(=O)[C@@H](C)O4)n2)cc1` [Compound 1272, (R)-5-Fluoro-N2-[4-(N-methoxycarbonylmethyleneamino)carbonylphenyl]-N4-(2-methyl-3-oxo-2H,4H-benz[1,4]oxazin-6-yl)-2,4-pyrimidinediamine] are > 10 µM and < 10 µM.
For the compound `CNC(=O)CNC(=O)c1ccc(Nc2ncc(F)c(Nc3ccc4c(c3)NC(=O)C(C)(C)O4)n2)cc1` [Compound 1295, N4-(2,2-Dimethyl-3-oxo-4H-benz[1,4]oxazin-6-yl)-5-fluaro-N2-[4-[N-(N-methylamino)carbonylmethylene]aminocarbonylphenyl]-2,4-pyrimidinediamine], the IC50 in assay [1] (setting [3]) is > 10 µM; in assay [2] (setting [4]) it was < 10 µM; in assay [2] (setting [5]) it was < 10 µM.
`CNC(=O)CNC(=O)c1ccc(Nc2ncc(F)c(Nc3ccc4c(c3)NC(=O)[C@H](C)O4)n2)cc1` [Compound 1296, (S)-5-Fluoro-N2-[4-[N-(N-methylamino)carbonylmethylene]aminocarbonylphenyl]-N4-(2-methyl-3-oxo-2H,4H-benz[1,4]oxazin-6-yl)-2,4-pyrimidinediamine]: the values for the IC50 in assay [1] (setting [3]), in assay [2] (setting [4]) and in assay [2] (setting [5]) were > 10 µM, < 10 µM and < 10 µM, respectively.
In the case of `CC(C)(C)OC(=O)NCC(=O)NCc1ccc(Nc2ncc(F)c(Nc3ccc4c(c3)NC(=O)C(C)(C)O4)n2)cc1` [Compound 1307, N2-[4-[1-(tert-Butoxycarbonylamino)methylenecarbonylamino]methylphenyl]-N4-(2,2-dimethyl-3-oxo-4H-benz[1,4]oxazin-6-yl)-5-fluoro-2,4-pyrimidinediamine], the IC50 in assay [1] (setting [3]), in assay [2] (setting [4]) and in assay [2] (setting [5]) was < 10 µM in each case.
Consider `C[C@@H]1Oc2ccc(Nc3nc(Nc4ccc(CNC(=O)CNC(=O)OC(C)(C)C)cc4)ncc3F)cc2NC1=O` [Compound 1308, (S)—N2-[4-[1-(tert-Butoxycarbonylamino)methylenecarbonylamino]methylphenyl]-5-fluoro-N4-(2-methyl-3-oxo-2H,4H-benz[1,4]oxazin-6-yl)-2,4-pyrimidinediamine], for which the IC50 in assay [1] (setting [3]), in assay [2] (setting [4]) and in assay [2] (setting [5]) was < 10 µM throughout.
Consider `CC(C)(C)OC(=O)NCC(=O)NCc1ccc(Nc2ncc(F)c(Nc3ccc4c(c3)NC(=O)C(F)(F)O4)n2)cc1` [Compound 1309, N2-[4-[1-(tert-Butoxycarbonylamino)methylenecarbonylamino]methylphenyl]-N4-(2,2-difluoro-3-oxo-4H-benz[1,4]oxazin-6-yl)-5-fluoro-2,4-pyrimidinediamine], for which the values for the IC50 in assay [1] (setting [3]), in assay [2] (setting [4]) and in assay [2] (setting [5]) were > 10 µM, < 10 µM and < 10 µM, respectively.
Turning to “N2-(3-Chloro-4-methoxyphenyl)-N4-(2,2-dimethyl-3-oxo-4H-benz[1,4]oxazin-6-yl)-5-fluoro-N4-methyl-2,4-pyrimidinediamine [Compound 394]”, the IC50 in assay [1] (setting [8]) and in assay [2] (setting [9]) was < 10 µM in each case.
In the case of “N2-(Bis-2-hydroxyethyl)-N4-(3,4-ethylenedioxyphenyl)-5-fluoro-N4-methyl-2,4-pyrimidinediamine [Compound 492]”, the IC50 in assay [1] (setting [8]) and in assay [2] (setting [9]) was > 10 µM throughout.
For “N4-(2,2-Difluoro-3-oxo-4H-benz[1,4]oxazin-6-yl)-5-fluoro-N2-[4-[N-(N-methylamino)carbanylmethylene]aminocarbonyl phenyl]-2,4-pyrimidinediamine [Compound 1297]”, the values for the IC50 in assay [1] (setting [3]) and in assay [2] (setting [4]) were > 10 µM and < 10 µM, respectively.
